Measurements: article PMC12136037, “Type II kinase inhibitors that target Parkinson’s disease–associated LRRK2” (Science Advances, 2025)
Values joined by “and” are separate entries in the source; they are usually repeats but may differ in a detail not shown here. Equal entries are not always repeated.

Experiments:
[1] = molecular target: T1, LRRK2^RCKW (Homo sapiens, UniProt Q5S007); assay: Biochemical LRRK2 activity assay (PhosphoSense, AssayQuant SOX peptide AQT0615); settings: for IC50: LRRK2^RCKW kinase activity, in vitro; for normalized response (LRRK2 activity): normalized to 0% (no kinase) and 100% (no inhibitor) control, two singlicate columns per compound
T1 construct: LRRK2 R1327 to E2527; His6-Z-tag (TEV cleavable) (N, cleaved yes); host or cells: Sf9 insect cells (baculovirus)
T1 sequence (Q5S007 1327-2527): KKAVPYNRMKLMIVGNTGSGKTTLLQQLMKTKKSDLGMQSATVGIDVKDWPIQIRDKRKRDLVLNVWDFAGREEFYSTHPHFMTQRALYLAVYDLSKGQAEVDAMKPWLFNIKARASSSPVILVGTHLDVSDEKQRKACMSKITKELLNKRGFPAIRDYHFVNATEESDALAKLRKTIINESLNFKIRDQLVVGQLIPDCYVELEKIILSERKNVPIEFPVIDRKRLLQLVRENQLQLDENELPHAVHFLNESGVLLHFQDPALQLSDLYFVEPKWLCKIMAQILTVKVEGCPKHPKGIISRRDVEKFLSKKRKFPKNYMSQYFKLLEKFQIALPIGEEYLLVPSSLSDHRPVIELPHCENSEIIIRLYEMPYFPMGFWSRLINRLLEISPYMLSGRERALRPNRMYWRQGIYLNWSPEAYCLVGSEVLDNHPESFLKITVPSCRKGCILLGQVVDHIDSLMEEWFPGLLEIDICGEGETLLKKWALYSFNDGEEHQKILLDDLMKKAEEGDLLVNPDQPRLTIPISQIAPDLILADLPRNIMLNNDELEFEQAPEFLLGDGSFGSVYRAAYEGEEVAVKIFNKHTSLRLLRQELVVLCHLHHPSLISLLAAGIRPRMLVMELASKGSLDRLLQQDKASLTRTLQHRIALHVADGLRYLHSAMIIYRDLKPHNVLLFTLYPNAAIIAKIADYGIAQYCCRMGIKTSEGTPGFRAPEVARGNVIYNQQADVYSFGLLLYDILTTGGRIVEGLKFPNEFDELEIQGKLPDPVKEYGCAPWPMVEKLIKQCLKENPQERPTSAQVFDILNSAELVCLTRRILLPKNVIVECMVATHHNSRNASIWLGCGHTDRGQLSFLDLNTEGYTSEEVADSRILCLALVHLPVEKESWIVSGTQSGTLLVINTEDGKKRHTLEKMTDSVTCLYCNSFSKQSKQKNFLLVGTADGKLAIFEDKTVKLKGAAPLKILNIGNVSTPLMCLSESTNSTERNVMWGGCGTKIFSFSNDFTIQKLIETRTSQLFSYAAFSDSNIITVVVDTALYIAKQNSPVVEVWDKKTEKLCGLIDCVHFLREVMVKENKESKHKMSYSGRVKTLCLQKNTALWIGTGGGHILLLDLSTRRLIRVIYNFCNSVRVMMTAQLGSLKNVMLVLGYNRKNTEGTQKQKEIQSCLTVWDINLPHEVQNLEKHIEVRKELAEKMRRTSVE
Method: Two wells per compound were used as 0% (without protein and compound) and 100% (without compound) control. […] The 0% control wells were filled with 10 μl of pure reaction buffer. With the ECHO, 5 nl of 100 mM ATP was pipetted into each well, the plates were centrifuged at 1500g for 2 min, and the reaction was incubated at room temperature for 4 hours. The fluorescence of the SOX-peptide after 360-nm excitation was measured at 487-nm emission with a PHERAstar plate reader (BMG Labtech). The IC50 values were calculated from a nonlinear regression of the log[inhibitor] versus the normalized response with GraphPad Prism 8 (www.graphpad.com/, RRID:SCR_002798).

[2] = molecular target: T2, LRRK2^KW (Homo sapiens, UniProt Q5S007); assay: DSF thermal stabilization of LRRK2^KW; format: binding; settings: DSF, LRRK2^KW, 10 μM inhibitor
T2 construct: LRRK2 R1847 to E2527; His6-Z-tag (TEV cleavable) (N, cleaved yes); host or cells: Sf9 insect cells (baculovirus)
T2 sequence (Q5S007 1847-2527): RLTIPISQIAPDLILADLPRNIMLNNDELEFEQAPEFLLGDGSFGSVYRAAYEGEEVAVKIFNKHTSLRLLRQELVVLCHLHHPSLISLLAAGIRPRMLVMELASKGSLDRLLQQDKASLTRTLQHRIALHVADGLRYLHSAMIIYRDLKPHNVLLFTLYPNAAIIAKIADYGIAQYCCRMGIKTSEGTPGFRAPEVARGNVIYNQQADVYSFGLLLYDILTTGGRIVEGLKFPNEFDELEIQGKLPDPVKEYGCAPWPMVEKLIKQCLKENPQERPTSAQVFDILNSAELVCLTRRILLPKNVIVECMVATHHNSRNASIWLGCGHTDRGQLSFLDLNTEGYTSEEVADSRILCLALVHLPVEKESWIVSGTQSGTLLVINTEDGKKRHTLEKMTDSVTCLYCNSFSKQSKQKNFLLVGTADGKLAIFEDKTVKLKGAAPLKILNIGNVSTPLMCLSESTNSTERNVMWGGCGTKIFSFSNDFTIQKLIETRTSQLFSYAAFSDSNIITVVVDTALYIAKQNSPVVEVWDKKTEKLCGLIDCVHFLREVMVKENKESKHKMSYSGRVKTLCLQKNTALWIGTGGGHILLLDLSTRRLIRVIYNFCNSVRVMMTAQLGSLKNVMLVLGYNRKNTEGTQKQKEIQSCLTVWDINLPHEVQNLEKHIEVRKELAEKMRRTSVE
Method: To characterize binding between small molecules and LRRK2^KW, induced thermal stabilization was measured by DSF according to previously established protocols ([47]). In brief, LRRK2^KW was diluted to 4 μM in 20 mM Hepes (pH 7.4), 150 mM NaCl, 0.5 mM TCEP, 0.5% glycerol, 20 μM GDP, and 2.5 mM MgCl2, and SYPRO Orange was added (1:1000, MilliporeSigma). Inhibitor (10 μM) to be tested was added to a final sample volume of 20 μl per well of a 96-well plate (white, Starlab). […] The fluorescence was plotted against the temperature, and the melting point (Tm) was determined as the minimum of the first derivative relative to the control.

| IC50 [1] | normalized response (LRRK2 activity) ([1]; log[inhibitor(mol)] -4.82391) | normalized response (LRRK2 activity) ([1]; log[inhibitor(mol)] -5.12494) | normalized response (LRRK2 activity) ([1]; log[inhibitor(mol)] -5.60206) | normalized response (LRRK2 activity) ([1]; log[inhibitor(mol)] -6.30103) | normalized response (LRRK2 activity) ([1]; log[inhibitor(mol)] -6.90309) | normalized response (LRRK2 activity) ([1]; log[inhibitor(mol)] -7.30103) | normalized response (LRRK2 activity) ([1]; log[inhibitor(mol)] -7.60206) | normalized response (LRRK2 activity) ([1]; log[inhibitor(mol)] -8.09691) | normalized response (LRRK2 activity) ([1]; log[inhibitor(mol)] -8.61979) | normalized response (LRRK2 activity) ([1]; log[inhibitor(mol)] -9.09691) | normalized response (LRRK2 activity) ([1]; log[inhibitor(mol)] -9.39794) | ∆Tm (K) [2] | Compound |
| --- | --- | --- | --- | --- | --- | --- | --- | --- | --- | --- | --- | --- | --- |
| 0.694 ± 0.001 µM | -13.5275% and -8.323% | -11.1035% and -8.9537% | 14.4144% and 11.8039% | 58.5784% and 59.582% | 93.4358% and 94.7027% | 100.456% and 104.273% | 103.702% and 110.256% | 103.006% and 100.445% | 97.1047% and 100.867% | 96.2602% and 102.309% | 100.406% and 102.43% | 6.0 K | O=C(Nc1ccc(F)cc1)C1(C(=O)Nc2cccc(-c3c[nH]c4ncnc(N5CCOCC5)c34)c2)CCCC1 [Compound 3] |
| 9.58 ± 0.565 µM |  | 55.8562% and 55.0924% | 86.5066% and 85.5833% |  | 96.7944% and 101.803% | 96.688% and 103.084% | 102.717% and 103.476% | 97.9836% and 98.7571% | 100.995% and 103.804% | 100.705% and 102.156% | 104.655% and 105.003% | 1.8 K | Cc1ccc(NC(=O)C2(C(=O)Nc3ccc(F)cc3)CC2)cc1-c1c[nH]c2ncnc(N3CCOCC3)c12 [Compound 5] |
| 10.5 µM | 48.7254% and 32.1819% | 55.2664% and 57.3114% | 81.8607% and 85.9555% | 94.4496% and 98.762% | 100.265% and 101.228% | 105.467% and 108.576% | 105.158% and 64.9692% | 97.331% and 101.237% | 106.173% and 99.8401% | 141.905% and 102.383% | 109.403% and 105.477% | 7.8 K | Cc1ccc(-c2c[nH]c3ncnc(N4CCOCC4)c23)cc1NC(=O)C1(C(=O)Nc2ccc(F)cc2)CC1 [Compound 7] |
| 0.912 ± 0.141 µM | 4.225% and -5.581% | 6.8846% and 7.148% | 31.5798% and 32.6109% | 61.7209% and 66.4318% | 86.2516% and 93.0519% | 93.3097% and 89.5476% | 86.8493% and 91.0776% | 91.1928% and 88.5988% | 102.068% and 96.0518% | 105.369% and 96.9676% | 104.196% and 102.019% | 7.0 K | O=C(c1cccc(NC(=O)C2(C(=O)Nc3ccc(F)cc3)CC2)c1)c1c[nH]c2ncnc(N3CCOCC3)c12 [Compound 8] |
| 2.11 ± 1.19 µM |  |  | 49.186% and 49.8222% | 82.8654% and 52.2345% | 104.293% and 98.1919% | 105.91% and 76.5961% | 104.315% and 59.7541% | 97.675% and 89.444% | 99.5438% and 104.868% | 109.546% and 62.2548% | 105.46% and 118.944% | 4.0 K | Cn1cc(NC(=O)C2(C(=O)Nc3cccc(-c4c[nH]c5ncnc(N6CCOCC6)c45)c3)CC2)cn1 [Compound 9] |
